Residues, ends and D or L forms follow the SMILES beside them. No end group written: not given here.
Legend:
Test in all cases: In vitro radiolabeled competitive HLA binding assay
[1] = target: HLA A*02:01 (purified MHC class I) (Homo sapiens, UniProt P04439, D140Y/D185E/D98H/E176V/E277Q/G131W/G231S/I119V/I121R/I166T/I218V/L300P/L318F/N151K/N90K/P208A/P217A/Q86G/Q94H/R138H/R169H/T345S)
[2] = target: HLA B*07:02 (purified MHC class I) (Homo sapiens, UniProt P01889)
[3] = target: HLA B*40:01 (purified MHC class I) (Homo sapiens, UniProt P01889, A65T/A93T/A95T/D138N/D98Y/E176V/E69K/N87E/Q56L/Q94N/R180L/S121R/S35A/S48T/T167S/V36M/W171L/Y33H/Y91S)
[4] = target: HLA B*40:02 (purified MHC class I) (Homo sapiens, UniProt P01889, A65T/A93T/A95T/D138N/D201E/D98Y/E176V/E204Q/E69K/K202T/N87E/Q56L/Q94N/R180L/S48T/Y33H/Y91S)
[5] = target: HLA A*26:01 (purified MHC class I) (Homo sapiens, UniProt P04439, A114D/A173T/A270S/D101N/D185E/E277Q/E87N/F33Y/G231S/I121R/I218V/K168Q/L180W/L300P/L318F/P208A/P217A/Q86R/Q94H/R138Q/S129P/T187R/T323A/T345S/V100A/V358M)
[6] = target: HLA B*08:01 (purified MHC class I) (Homo sapiens, UniProt P01889, A93T/A95T/D138N/E176V/E187T/K202T/Q94N/R180D/S35A/V36M/Y33D/Y91F)

| Compound | IC50 [1] [nM] | further results |
| --- | --- | --- |
| VLSDFKTWL | 305 |  |
| RLWHYPCTV | 12 |  |
| CC(C)C[C@H](NC(=O)[C@H](C)NC(=O)[C@H](CC(C)C)NC(=O)[C@@H](N)CC(C)C)C(=O)N[C@@H](CC(C)C)C(=O)N[C@@H](CO)C(=O)N[C@@H](CS)C(=O)N[C@@H](CC(C)C)C(=O)N[C@H](C(=O)N[C@H](C(=O)O)C(C)C)[C@@H](C)O | 357 |  |
| HPALVFDIT |  | IC50 [2]: 160 nM |
| LEDRDRSEL |  | IC50 [3]: 426 nM; IC50 [4]: 4270 nM |
| CSCC[C@H](NC(=O)[C@H](CO)NC(=O)[C@H](CS)NC(=O)[C@H](CS)NC(=O)[C@@H](NC(=O)[C@@H](NC(=O)[C@@H](N)CC(=O)O)C(C)C)C(C)C)C(=O)N[C@@H](CO)C(=O)N[C@@H](Cc1ccc(O)cc1)C(=O)O (H-DVVCCSMSY-OH) |  | IC50 [5]: 25 nM |
| FLVGQLFTF | 67 |  |
| GIDPNIRTGV | 722 |  |
| SLLAPGAKQNV | 513 |  |
| CC[C@H](C)[C@H](N)C(=O)N1CCC[C@H]1C(=O)N[C@@H](Cc1ccccc1)C(=O)N[C@@H](Cc1ccc(O)cc1)C(=O)NCC(=O)N[C@@H](CCCCN)C(=O)N[C@@H](C)C(=O)N[C@H](C(=O)O)[C@@H](C)CC |  | IC50 [2]: 497 nM |
| CC(C)C[C@H](NC(=O)[C@H](CCC(=O)O)NC(=O)[C@H](CC(=O)O)NC(=O)[C@H](CS)NC(=O)[C@H](CCCCN)NC(=O)[C@H](CCCCN)NC(=O)[C@H](CCCCN)NC(=O)[C@H](CO)NC(=O)[C@@H](N)Cc1c[nH]cn1)C(=O)O |  | IC50 [6]: 764 nM |
| GVDPNIRTGV | 351 |  |

Source: PMC3345099 (Journal of Immunology (Baltimore, Md. : 1950), 2012)
